Assay [1] concerns the target 5-hydroxytryptamine receptor 2A (Homo sapiens, UniProt P28223).
Description: Binding affinity towards serotonin 5-hydroxytryptamine 2A receptor
For assay [2], the target named is T1, 5-hydroxytryptamine receptor 2C (Homo sapiens, UniProt P28335).
T1 sequence (P28335 whole entry): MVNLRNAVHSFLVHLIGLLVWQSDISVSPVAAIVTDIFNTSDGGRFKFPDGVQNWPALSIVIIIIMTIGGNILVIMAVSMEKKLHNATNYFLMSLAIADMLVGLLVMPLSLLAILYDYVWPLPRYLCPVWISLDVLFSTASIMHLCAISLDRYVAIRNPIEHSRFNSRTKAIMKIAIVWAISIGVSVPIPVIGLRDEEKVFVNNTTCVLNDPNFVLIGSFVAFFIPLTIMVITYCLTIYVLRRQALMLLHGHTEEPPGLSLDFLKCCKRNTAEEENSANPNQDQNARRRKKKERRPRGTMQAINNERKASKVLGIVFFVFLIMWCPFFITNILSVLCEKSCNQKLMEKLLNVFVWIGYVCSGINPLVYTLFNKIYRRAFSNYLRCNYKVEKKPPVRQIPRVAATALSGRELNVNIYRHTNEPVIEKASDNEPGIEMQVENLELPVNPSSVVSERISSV
Description: Binding affinity towards serotonin 5-hydroxytryptamine 2C receptor

A value given as a limit tells only on which side of the number the result lay.

As usually defined, the Ki is the equilibrium dissociation constant of an inhibitor or competing ligand from its target. The low end stands for higher affinity, the high end for lower affinity.

Sequence of 5-hydroxytryptamine receptor 2A (P28223 whole entry): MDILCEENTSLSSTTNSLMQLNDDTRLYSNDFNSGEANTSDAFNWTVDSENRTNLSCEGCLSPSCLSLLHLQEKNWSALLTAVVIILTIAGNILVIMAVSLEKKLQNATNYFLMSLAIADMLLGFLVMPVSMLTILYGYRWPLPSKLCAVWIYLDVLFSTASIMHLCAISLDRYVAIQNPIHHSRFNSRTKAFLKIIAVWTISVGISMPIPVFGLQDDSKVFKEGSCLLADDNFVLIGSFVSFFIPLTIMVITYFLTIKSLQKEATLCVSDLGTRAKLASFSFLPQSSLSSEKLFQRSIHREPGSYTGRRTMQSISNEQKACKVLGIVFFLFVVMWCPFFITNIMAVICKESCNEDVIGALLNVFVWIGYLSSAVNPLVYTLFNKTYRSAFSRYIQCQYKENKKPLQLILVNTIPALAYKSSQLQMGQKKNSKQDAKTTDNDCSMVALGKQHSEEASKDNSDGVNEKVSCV

`COc1ccc2c(c1)CC(CN1CCC(C(=O)c3ccc(F)cc3)CC1)CC2=O` (racemic): the figures for the Ki in assay [1] and in assay [2] were 17.8 nM and 1170 nM, respectively. In the case of `COc1cc2c(cc1OC)C(=O)CC(CN1CCN(c3ccccn3)CC1)C2` (racemic), the Ki in assay [1] was 661 nM; in assay [2], over 10000 nM. Consider `O=C1CC(CN2CCN(c3ccccn3)CC2)Cc2ccccc21` (racemic), for which the Ki in assay [1] was 977 nM; in assay [2], 3310 nM. Regarding `COc1cc2c(cc1OC)C(=O)CC(CN1CCC(c3noc4cc(F)ccc34)CC1)C2` (racemic), the affinity in assay [1], expressed as Ki, was 9.55 nM. `COc1cc2c(cc1OC)C(=O)CC(CN1CCC(C(=O)c3ccc(F)cc3)CC1)C2` (racemic): the Ki in assay [1] was 6.03 nM; in assay [2] it was 83.2 nM. On the same counts, the results for `COc1ccc2c(c1)CC(CN1CCN(c3ccccc3OC)CC1)CC2=O` (racemic) are 891 nM and 46.8 nM. For the compound `O=C1CC(CN2CCC(c3noc4cc(F)ccc34)CC2)Cc2ccccc21` (racemic), the Ki is 2.69 nM in assay [1] and 129 nM in assay [2]. Regarding `COc1cc2c(cc1OC)C(=O)CC(CN1CCN(c3ccccc3OC)CC1)C2` (racemic), the inhibition constant (Ki) in assay [1] is 2340 nM; in assay [2], over 10000 nM. In the case of `O=C1CC(CN2CCC(C(=O)c3ccc(F)cc3)CC2)Cc2ccccc21` (racemic), the Ki was 13.2 nM in assay [1] and 501 nM in assay [2]. In assay [1], `COc1ccccc1N1CCN(CC2CC(=O)c3ccccc3C2)CC1` (racemic) gave an inhibition constant (Ki) of 513 nM. For the compound `COc1ccc2c(c1)CC(CN1CCN(c3ccccn3)CC1)CC2=O` (racemic), the Ki in assay [1] is 692 nM; in assay [2], 4570 nM. In assay [2], `COc1ccc2c(c1)CC(CN1CCC(c3noc4cc(F)ccc34)CC1)CC2=O` (racemic) had a Ki of 1620 nM. For `COc1ccc2c(c1)CC(CN1CCC(C(=O)c3ccc(F)cc3)CC1)CC2=O` (single isomer, unassigned; (+)), the results for the Ki in assay [1] and in assay [2] were 11.2 nM and 1100 nM, respectively. On the same counts, the results for `COc1cc2c(cc1OC)C(=O)CC(CN1CCC(C(=O)c3ccc(F)cc3)CC1)C2` (single isomer, unassigned; (+)) are 43.7 nM and 575 nM.

With `COc1ccc2c(c1)CC(CN1CCC(c3noc4cc(F)ccc34)CC1)CC2=O` (single isomer, unassigned; (+)), the values for the Ki in assay [1] and in assay [2] were 1.48 nM and 513 nM, respectively. `COc1ccc2c(c1)CC(CN1CCC(C(=O)c3ccc(F)cc3)CC1)CC2=O` (single isomer, unassigned; (-)): the Ki in assay [1] is 16.2 nM; in assay [2], 977 nM. In the case of `COc1cc2c(cc1OC)C(=O)CC(CN1CCC(C(=O)c3ccc(F)cc3)CC1)C2` (single isomer, unassigned; (-)), the results for the Ki in assay [1] and in assay [2] were 5.62 nM and 166 nM, respectively. On the same counts, the results for `COc1ccc2c(c1)CC(CN1CCC(c3noc4cc(F)ccc34)CC1)CC2=O` (single isomer, unassigned; (-)) are 26.3 nM and 832 nM. Regarding `O=C1CC(CN2CCC(C(=O)c3ccc(F)cc3)CC2)Cc2ccccc21` (stereo in doubt; (+)-7c), the Ki is 23.4 nM in assay [1] and 490 nM in assay [2]. Consider `O=C1CC(CN2CCC(c3noc4cc(F)ccc34)CC2)Cc2ccccc21` (stereo in doubt; (+)-7d), for which the results for the Ki in assay [1] and in assay [2] were 29.5 nM and 661 nM, respectively. As to `O=C1CC(CN2CCC(C(=O)c3ccc(F)cc3)CC2)Cc2ccccc21` (stereo in doubt; (-)-7c), the Ki in assay [1] was 5.89 nM; in assay [2], 776 nM. On to `O=C1CC(CN2CCC(c3noc4cc(F)ccc34)CC2)Cc2ccccc21` (stereo in doubt; (-)-7d), for which the inhibition constant (Ki) was 6.31 nM in assay [1] and 832 nM in assay [2].

Take `COc1cc2c(cc1OC)C(=O)CC(CN1CCC(c3noc4cc(F)ccc34)CC1)C2` (stereo in doubt; (-)-9d): in assay [1], the affinity, expressed as Ki, was 7.24 nM.

Values taken from ChEMBL document CHEMBL1149215, “Chemoenzymatic synthesis and binding affinity of novel (R)- and (S)-3-aminomethyl-1-tetralones, potential atypical antipsychotics” (Bioorg Med Chem Lett, 2004).
